According to patent US11390604B2 (Hoffmann-La Roche Inc., priority 2019, dated 2022):
Counter-ions that a name gives are not always drawn.

These compounds were tested on Acinetobacter baumannii ATCC 17961 (assay: Antimicrobial susceptibility testing: 90% growth inhibitory concentration (IC90) determination). Conditions: ATCC17961, Acinetobacter baumannii ATCC 17961, Iso-Sensitest broth, read-out: ATCC 17961 IC90.
Type: cell-based
Method in brief: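 Broth microdilution in Iso-Sensitest medium, twofold series (e.g. 50 to 0.097 μM final), ~5×10^5 CFU/ml inoculum, 35±2 °C. OD600 read every 20 min over 16 h. IC90 derived from growth inhibition during logarithmic phase.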

| IC90 | SMILES |
| --- | --- |
| 86 nM | Cn1c(-c2cn(C3CC3(F)F)nc2C(F)(F)F)cnc1C(=O)Nc1ccc(C(=O)NCC2(N)CC2)c(Cl)c1 (stereo not shown) [Example 178, N-(4-(((1-aminocyclopropyl)methyl)carbamoyl)-3-chlorophenyl)-5-(1-(2,2-difluorocyclopropyl)-3-(trifluoromethyl)-1H-pyrazol-4-yl)-1-methyl-H-imidazole-2-carboxamide Formate] |
| 64 nM | Cn1c(-c2cn([C@@H]3CC3(F)F)nc2C(F)(F)F)cnc1C(=O)Nc1ccc(C(=O)N[C@H]2[C@@H]3CN(C(=O)N[C@@H]4CNC[C@H]4O)C[C@@H]32)c(Cl)c1 [Example 181, (1S,5R)-6-[[2-chloro-4-[[5-[1-[(1R)-2,2-difluorocyclopropyl]-3-(trifluoromethyl)pyrazol-4-yl]-1-methyl-imidazole-2-carbonyl]amino]benzoyl]amino]-N-[(3R,4R)-4-hydroxypyrrolidin-3-yl]-3-azabicyclo[3.1.0]hexane-3-carboxamide; Hydrochloride] |
| 152 nM | Cn1c(-c2cn(CC(F)F)nc2C(F)(F)F)cnc1C(=O)Nc1ccc(S(=O)(=O)N2CCNCC2)c(Cl)c1 [Example 188, N-(3-chloro-4-(piperazin-1-ylsulfonyl)phenyl)-5-(1-(2,2-difluoroethyl)-3-(trifluoromethyl)-1H-pyrazol-4-yl)-1-methyl-1H-imidazole-2-carboxamide hydrochloride] |
| 193 nM | Cn1c(-c2cn(CC3CC3)nc2C(F)(F)F)cnc1C(=O)Nc1ccc(C(=O)N2CCN(C(=O)[C@H]3[C@@H]4CNC[C@@H]43)CC2)c(F)c1 [Example 194, rac-N-(4-(4-((1R,5S,6r)-3-azabicyclo[3.1.0]hexane-6-carbonyl)piperazine-1-carbonyl)-3-fluorophenyl)-5-(1-(cyclopropylmethyl)-3-(trifluoromethyl)-1H-pyrazol-4-yl)-1-methyl-1H-imidazole-2-carboxamide hydrochloride] |
| 202 nM | Cn1c(-c2cn(C3CC3)nc2C(F)(F)F)cnc1C(=O)Nc1ccc(C(=O)N2CC[C@H](CN)C2)c(Cl)c1 [Example 195, (R)-N-(4-(3-(aminomethyl)pyrrolidine-1-carbonyl)-3-chlorophenyl)-5-(1-cyclopropyl-3-(trifluoromethyl)-1H-pyrazol-4-yl)-1-methyl-1H-imidazole-2-carboxamide hydrochloride] |
| 202 nM | Cn1c(-c2cn(C3CC3)nc2C(F)(F)F)cnc1C(=O)Nc1ccc(C(=O)N2CCC(C3CNC3)CC2)c(Cl)c1 [Example 197, N-(4-(4-(azetidin-3-yl)piperidine-1-carbonyl)-3-chlorophenyl)-5-(1-cyclopropyl-3-(trifluoromethyl)-1H-pyrazol-4-yl)-1-methyl-1H-imidazole-2-carboxamide formate] |
| 216 nM | Cn1c(-c2cn(C3CC3(F)F)nc2C(F)(F)F)cnc1C(=O)Nc1ccc(C(=O)N2CCC(F)(CN)CC2)c(Cl)c1 (stereo not shown) [Example 201, N-(4-(4-(aminomethyl)-4-fluoropiperidine-1-carbonyl)-3-chlorophenyl)-5-(1-(2,2-difluorocyclopropyl)-3-(trifluoromethyl)-1H-pyrazol-4-yl)-1-methyl-1H-imidazole-2-carboxamide formate] |

Second part, the compound before the results:

| SMILES | IC90 |
| --- | --- |
| Cn1c(-c2cn([C@H]3CC3(F)F)nc2C(F)(F)F)cnc1C(=O)Nc1ccc(C(=O)N[C@H]2[C@@H]3CN(C(=O)N[C@@H]4CNC[C@H]4O)C[C@@H]32)c(Cl)c1 [Example 182, (1S,5R)-6-[[2-chloro-4-[[5-[1-[(1S)-2,2-difluorocyclopropyl]-3-(trifluoromethyl)pyrazol-4-yl]-1-methyl-imidazole-2-carbonyl]amino]benzoyl]amino]-N-[(3R,4R)-4-hydroxypyrrolidin-3-yl]-3-azabicyclo[3.1.0]hexane-3-carboxamide] | 110 nM |
| Cn1c(-c2cn(C3CC3(F)F)nc2C(F)(F)F)cnc1C(=O)Nc1ccc(C(=O)N[C@H]2[C@@H]3CN(C(=O)N4CCNCC4)C[C@@H]32)c(Cl)c1 (stereo partly drawn) [Example 184, N-(3-chloro-4-(((1R,5S,6s)-3-(piperazine-1-carbonyl)-3-azabicyclo[3.1.0]hexan-6-yl)carbamoyl)phenyl)-5-(1-(2,2-difluorocyclopropyl)-3-(trifluoromethyl)-1H-pyrazol-4-yl)-1-methyl-1H-imidazole-2-carboxamide] | 136 nM |
| C=C(F)Cn1cc(-c2cnc(C(=O)Nc3ccc(C(=O)NCCCCCN)c(Cl)c3)n2C)c(C(F)(F)F)n1 [Example 185, N-(4-((5-aminopentyl)carbamoyl)-3-chlorophenyl)-5-(1-(2-fluoroallyl)-3-(trifluoromethyl)-1H-pyrazol-4-yl)-1-methyl-1H-imidazole-2-carboxamide hydrochloride] | 148 nM |
| Cn1c(-c2cn(C3CC3)nc2C(F)(F)F)cnc1C(=O)Nc1ccc(C(=O)NCCCCCCN)c(Cl)c1 [Example 187, N-(4-((6-aminohexyl)carbamoyl)-3-chlorophenyl)-5-(1-cyclopropyl-3-(trifluoromethyl)-1H-pyrazol-4-yl)-1-methyl-1H-imidazole-2-carboxamide hydrochloride] | 151 nM |
| CN(CCCCN)C(=O)c1ccc(NC(=O)c2ncc(-c3cn(C4CC4)nc3C(F)(F)F)n2C)cc1Cl [Example 190, N-(4-((4-aminobutyl)(methyl)carbamoyl)-3-chlorophenyl)-5-(1-cyclopropyl-3-(trifluoromethyl)-1H-pyrazol-4-yl)-1-methyl-1H-imidazole-2-carboxamide hydrochloride] | 173 nM |
| Cn1c(-c2cn(C3CC3)nc2C(F)(F)F)cnc1C(=O)Nc1ccc(C(=O)N2CCC(CCN)CC2)c(Cl)c1 [Example 191, N-(4-(4-(2-aminoethyl)piperidine-1-carbonyl)-3-chlorophenyl)-5-(1-cyclopropyl-3-(trifluoromethyl)-1H-pyrazol-4-yl)-1-methyl-1H-imidazole-2-carboxamide formate] | 176 nM |
| Cn1c(-c2cn(C3CC3(F)F)nc2C(F)(F)F)cnc1C(=O)Nc1ccc(C(=O)NC2CC3(CC(N)C3)C2)c(Cl)c1 (stereo not shown) [Example 193, N-(4-((6-aminospiro[3.3]heptan-2-yl)carbamoyl)-3-chlorophenyl)-5-(1-(2,2-difluorocyclopropyl)-3-(trifluoromethyl)-1H-pyrazol-4-yl)-1-methyl-1H-imidazole-2-carboxamide formate] | 188 nM |
| Cn1c(-c2cn(C3CC3(F)F)nc2C(F)(F)F)cnc1C(=O)Nc1ccc(C(=O)NCC2CC3CNCC3C2)c(Cl)c1 (stereo not shown) [Example 196, N-(3-chloro-4-(((octahydrocyclopenta[c]pyrrol-5-yl)methyl)carbamoyl)phenyl)-5-(1-(2,2-difluorocyclopropyl)-3-(trifluoromethyl)-1H-pyrazol-4-yl)-1-methyl-1H-imidazole-2-carboxamide formate] | 202 nM |
| Cn1c(-c2cn(CC(F)F)nc2C(F)(F)F)cnc1C(=O)Nc1ccc(S(=O)(=O)N2CCN(C(=O)[C@H]3C[C@H](O)CN3)CC2)c(Cl)c1 [Example 198, N-(3-chloro-4-((4-((2R,4S)-4-hydroxypyrrolidine-2-carbonyl)piperazin-1-yl)sulfonyl)phenyl)-5-(1-(2,2-difluoroethyl)-3-(trifluoromethyl)-1H-pyrazol-4-yl)-1-methyl-1H-imidazole-2-carboxamide hydrochloride] | 207 nM |
| C=C(C)Cn1cc(-c2cnc(C(=O)Nc3ccc(C(=O)NCCCCN)c(Cl)c3)n2C)c(C(F)(F)F)n1 [Example 199, N-(4-((4-aminobutyl)carbamoyl)-3-chlorophenyl)-1-methyl-5-(1-(2-methylallyl)-3-(trifluoromethyl)-1H-pyrazol-4-yl)-1H-imidazole-2-carboxamide tris(2,2,2-trifluoroacetate)] | 213 nM |
| Cn1c(-c2cn(C3CC3)nc2C(F)(F)F)cnc1C(=O)Nc1ccc(C(=O)N2CCN(C(=O)CN)CC2)c(Cl)c1 [Example 200, N-(3-chloro-4-(4-glycylpiperazine-1-carbonyl)phenyl)-5-(1-cyclopropyl-3-(trifluoromethyl)-1H-pyrazol-4-yl)-1-methyl-1H-imidazole-2-carboxamide hydrochloride] | 215 nM |
| Cn1c(-c2cn(CC3CCC3)nc2C(F)(F)F)cnc1C(=O)Nc1ccc(C(=O)N2CCN(C(=O)CN)CC2)c(Cl)c1 [Example 202, N-(3-chloro-4-(4-glycylpiperazine-1-carbonyl)phenyl)-5-(1-(cyclobutylmethyl)-3-(trifluoromethyl)-1H-pyrazol-4-yl)-1-methyl-1H-imidazole-2-carboxamide hydrochloride] | 216 nM |
| Cn1c(-c2cn(CC3CC3)nc2C(F)(F)F)cnc1C(=O)Nc1ccc(C(=O)N2CCN(C(=O)N[C@H]3C[C@@H](N)C3)CC2)c(Cl)c1 [Example 203, rac-N-((1s,3s)-3-aminocyclobutyl)-4-(2-chloro-4-(5-(1-(cyclopropylmethyl)-3-(trifluoromethyl)-1H-pyrazol-4-yl)-1-methyl-1H-imidazole-2-carboxamido)benzoyl)piperazine-1-carboxamide] | 222 nM |

Same assay, conditions: Acinetobacter baumannii, ATCC17961, read-out: ATCC 17961 IC90, Acinetobacter baumannii ATCC 17961, Iso-Sensitest broth

| SMILES | IC90 |
| --- | --- |
| Cn1c(-c2cn(CCF)nc2C(F)(F)F)cnc1C(=O)Nc1ccc(C(=O)N2CCN(C(=O)C3(O)CCCNC3)CC2)c(Cl)c1 (stereo not shown) [Example 180, N-[3-chloro-4-[4-(3-hydroxypiperidine-3-carbonyl)piperazine-1-carbonyl]phenyl]-5-[1-(2-fluoroethyl)-3-(trifluoromethyl)pyrazol-4-yl]-1-methylimidazole-2-carboxamide; Trihydrochloride] | 397 nM |
| Cn1c(-c2cn([C@H]3CC3(F)F)nc2C(F)(F)F)cnc1C(=O)Nc1ccc(C(=O)N[C@H]2[C@@H]3CN(C(=O)N[C@H]4CNC[C@@H]4O)C[C@@H]32)c(Cl)c1 [Example 183, (1S,5R)-6-[[2-chloro-4-[[5-[1-[(1S)-2,2-difluorocyclopropyl]-3-(trifluoromethyl)pyrazol-4-yl]-1-methyl-imidazole-2-carbonyl]amino]benzoyl]amino]-N-[(3S,4S)-4-hydroxypyrrolidin-3-yl]-3-azabicyclo[3.1.0]hexane-3-carboxamide; Hydrochloride] | 170 nM |
